# Measured values as given in PubChem BioAssay (NCI).
#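 Each compound was tested at five concentrations against cells in 96-well plates for 48 hours. Abbreviation: GI50, concentration required for 50% inhibition of growth. TGI: concentration producing complete growth inhibition.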
# What was measured:
# Test in all cases: NCI-60 cell line screen, 48 h
# [1] = tested on: A549 NSCLC
# [2] = tested on: IGROV1 ovarian
# [3] = tested on: LOX IMVI melanoma
# [4] = tested on: MOLT-4 leukemia
# [5] = tested on: NCI-H23 lung
# [6] = tested on: NCI-H522 lung
# [7] = tested on: SK-MEL-2 melanoma
# [8] = tested on: SK-OV-3 ovarian
# [9] = tested on: U251 CNS
# [10] = tested on: UO-31 renal
Structure (SMILES),TGI [1] [µM],TGI [2] [µM],TGI [3] [µM],TGI [4] [µM],TGI [5] [µM],TGI [6] [µM],TGI [7] [µM],TGI [8] [µM],TGI [9] [µM],TGI [10] [µM],GI50 [1] [µM],GI50 [2] [µM],GI50 [3] [µM],GI50 [4] [µM],GI50 [5] [µM],GI50 [6] [µM],GI50 [7] [µM],GI50 [8] [µM],GI50 [9] [µM],GI50 [10] [µM]
CC(=O)NNc1nc(C)c(C(=O)NNC(=O)C(=O)Nc2ccccc2C#N)s1,> 100,> 100,> 100,> 100,> 100,> 100,> 100,> 100,> 100,> 100,,,,,,,,,,
Cc1ccc(C(=O)O/N=C2/CCC/C2=C\c2ccccc2)cc1,> 100,> 100,> 100,> 100,> 100,> 100,> 100,> 100,> 100,> 100,,,,,,,,,,
CN(C(=O)C12C3C4C5C3C1(C(=O)O)C5C42)C(C)(C)C (stereo not given),> 100,> 100,65.1,> 100,> 100,> 100,> 100,> 100,> 100,> 100,,,,,,,,,,
Cc1ccc(-c2c(N)[n+]([O-])c3ccccc3[n+]2[O-])cc1,62.3,29.8,25.4,> 100,19.5,3.21,22.9,35.9,27.8,29.7,,,,,,,,,,
C[C@@H](C(=O)Nc1ccc(Cl)cc1)C1CCC(c2ccnc3ccc(F)cc23)CC1 (stereo not given in full),> 100,> 100,21.3,> 100,56.4,70.5,29.8,73.8,> 100,> 100,9.9,9.11,5.85,4.16,3.93,10.7,9.81,15.3,20,3.94
CCN(Cc1ccc(F)c(F)c1)c1ccc(CO)c(Cl)c1,19.1,0.477,25.7,47.6,27.1,30.2,19.5,19.3,15.1,19.2,1.89,0.098,11.8,16.8,6.7,13.2,4.08,5.94,0.867,2.7
COc1c2c(c3c(c1CCC(=O)O)OC(C)(C)C=C3)OC(C)(C)C=C2,> 100,> 100,> 100,> 100,> 100,> 100,> 100,> 100,> 100,> 100,,,,,,,,,,
CN1CCN(CCc2cccc(C(=O)c3cnn(-c4ccc(F)cc4)c3N)c2)CC1,> 25,> 25,> 25,> 25,> 25,> 25,> 25,> 25,> 25,> 25,> 25,> 25,> 25,> 25,> 25,> 25,> 25,> 25,> 25,> 25
Nc1c(C(=O)Nc2cccc([N+](=O)[O-])c2)sc2nc3c(cc12)C(O)CCC3 (stereo not given),> 100,> 100,> 100,> 100,> 100,> 100,> 92.2,> 100,> 72.4,> 100,5.82,26,7.61,5.74,> 100,6.11,5.4,10.2,6.3,> 100
CCCCOc1ccc(NC(N)=Nc2ccc(Cl)cc2)cc1,10.3,21.3,15.1,> 42,17.3,16.5,9.73,22.7,21.5,9.6,,,,,,,,,,
